Like-named read-outs stand apart in the source and are kept apart here.
Experiments:
HIV = test: in vitro anti-HIV assay: inhibition of HIV-induced cytopathic effect in MT-4 cells (MTT); format: cell-based; details: for pSI: pSI = pCC50-pIC50 (selectivity index CC50/IC50); for pIC50 (M): −log IC50
Experimental: (§1) A rapid, sensitive and automated assay procedure was used for the in vitro evaluation of anti-HIV agents. […] Inhibition of the HIV-induced cytopathic effect was used as the end point. The viability of both HIV- and mock-infected cells was assessed spectrophotometrically via the in situ reduction of 3-(4,5-dimethylthiazol-2-yl)-2,5-diphenyltetrazolium bromide (MTT). The 50% cytotoxic concentration (CC50 in M) was defined as the concentration of compound that reduced the absorbance of the mock-infected control sample by 50%. The percent protection achieved by the compound in HIV-infected cells was calculated by the following formula:
(§2) [formula] whereby (ODT)HIV is the optical density measured with a given concentration of the test compound in HIV-infected cells; (ODC)HIV is the optical density measured for the control untreated HIV-infected cells; (ODC)MOCK is the optical density measured for the control untreated mock-infected cells; all optical density values were determined at 540 nm. The dose achieving 50% protection according to the above formula was defined as the 50% inhibitory concentration (IC50 in M). The ratio of CC50 to IC50 was defined as the selectivity index (SI).

mock-infected MT-4 cells = test: cytotoxicity (CC50) in mock-infected MT-4 cells (MTT); format: cell-based
Experimental: as §1, §2

[1] = 50% protection against HIV-induced cytopathic effect in MT-4 cells, MTT

In the case of `Cc1cc(C=C(C#N)CC#N)cc(C)c1Nc1ccnc(Nc2ccc(C#N)cc2)n1` (mixture of isomers) [Compound 147], the pSI (HIV) is reported as −3.7, the “pIC50 (M)” value (HIV; [1]) is reported as 9.4 M and the “pCC50 (M)” value (mock-infected MT-4 cells) is reported as 5.7 M.

Compound `Cc1cc(/C=C/C#N)cc(C)c1Nc1ccnc(Nc2ccc(C#N)cc2)n1` [Compound 1, 4-[[4-[[4-(2-cyanoethenyl)-2,6-dimethylphenyl]amino]-2-pyrimidinyl]amino]benzonitrile] has a pSI (HIV) of −4.4.

In the case of `Cc1cc(/C=C/C#N)cc(C)c1Nc1ccnc(Nc2ccc(C#N)cc2)n1` [Compound 10], the IC50 (HIV; Human immunodeficiency virus 1, MT4, −log IC50, 50% protection against HIV-induced cytopathic effect in MT-4 cells, MTT) is reported as 0.631 nM, the pSI (HIV) is reported as −2.9 and the “pCC50 (M)” value (mock-infected MT-4 cells; −log CC50, mock-infected MT-4 cells, MTT) is reported as 6.3 M.

For `Cc1cc(C=CC#N)cc(C)c1Oc1ccnc(Nc2ccc(C#N)cc2)n1` [Compound 25], the pSI (HIV) was −5 and the “pIC50 (M)” value (HIV; [1]) was 9 M.

For `CC(=NO)c1cc(C)c(Nc2ccnc(Nc3ccc(C#N)cc3)n2)c(C)c1` [Compound 45], the pSI (HIV) was −3.8, the “pIC50 (M)” value (HIV; [1]) was 8.7 M and the “pCC50 (M)” value (mock-infected MT-4 cells) was 5.0 M.

With `Cc1cc(CN(C)CCC#N)cc(C)c1Nc1ccnc(Nc2ccc(C#N)cc2)n1` [Compound 75] the pSI (HIV) was −4.0, the “pIC50 (M)” value (HIV; [1]) was 9.0 M and the “pCC50 (M)” value (mock-infected MT-4 cells) was 5.0 M.

For `C/C(=C\C#N)c1cc(C)c(Nc2ccnc(Nc3ccc(C#N)cc3)n2)c(C)c1` [Compound 84], the pSI (HIV) was −4.5, the “pIC50 (M)” value (HIV; [1]) was 9.0 M and the “pCC50 (M)” value (mock-infected MT-4 cells) was 4.5 M.

In the case of `Cc1cc(/C=C/C#N)cc(Cl)c1Nc1ccnc(Nc2ccc(C#N)cc2)n1` [Compound 133], the pSI (HIV) is reported as −5.2, the “pIC50 (M)” value (HIV; [1]) is reported as 9.2 M and the “pCC50 (M)” value (mock-infected MT-4 cells) is reported as 4 M.

`Cc1cc(CC(C#N)C#N)cc(C)c1Nc1ccnc(Nc2ccc(C#N)cc2)n1` [Compound 144] was tested, and the pSI (HIV) was −2.2, the “pIC50 (M)” value (HIV; [1]) was 8.6 M and the “pCC50 (M)” value (mock-infected MT-4 cells) was 6.4 M.

Work on `Cc1cc(/C=C/c2cccnc2)cc(C)c1Nc1ccnc(Nc2ccc(C#N)cc2)n1` [Compound 146] yielded a pSI (HIV) of −3.

In the case of `CC/C(=C\C#N)c1cc(C)c(Nc2ccnc(Nc3ccc(C#N)cc3)n2)c(C)c1` [Compound 148], the pSI (HIV) is reported as −3.9, the “pIC50 (M)” value (HIV; [1]) is reported as 8.8 M and the “pCC50 (M)” value (mock-infected MT-4 cells) is reported as 4.9 M.

`Cc1cc(/C(=C/C#N)C(C)C)cc(C)c1Nc1ccnc(Nc2ccc(C#N)cc2)n1` [Compound 149] was tested, and the pSI (HIV) was −3.8, the “pIC50 (M)” value (HIV; [1]) was 9.1 M and the “pCC50 (M)” value (mock-infected MT-4 cells) was 5.3 M.

With `Cc1cc(/C(=C\C#N)C(C)C)cc(C)c1Nc1ccnc(Nc2ccc(C#N)cc2)n1` [Compound 150] the pSI (HIV) was −4.0, the “pIC50 (M)” value (HIV; [1]) was 8.8 M and the “pCC50 (M)” value (mock-infected MT-4 cells) was 4.8 M.

With `CC(C#N)=Cc1cc(C)c(Nc2ccnc(Nc3ccc(C#N)cc3)n2)c(C)c1` [Compound 151] the pSI (HIV) was −3.6, the “pIC50 (M)” value (HIV; [1]) was 9.1 M and the “pCC50 (M)” value (mock-infected MT-4 cells) was 5.5 M.

In the case of `CC(C#N)=Cc1cc(C)c(Nc2ccnc(Nc3ccc(C#N)cc3)n2)c(C)c1` [Compound 152], the pSI (HIV) is reported as −4.3, the “pIC50 (M)” value (HIV; [1]) is reported as 9.1 M and the “pCC50 (M)” value (mock-infected MT-4 cells) is reported as 4.8 M.

`Cc1cc(CC(C)C#N)cc(C)c1Nc1ccnc(Nc2ccc(C#N)cc2)n1` (stereo not shown) [Compound 153] was tested, and the pSI (HIV) was −2.9, the “pIC50 (M)” value (HIV; [1]) was 9.2 M and the “pCC50 (M)” value (mock-infected MT-4 cells) was 6.3 M.

With `CCN(C)C(=O)/C=C/c1cc(C)c(Nc2ccnc(Nc3ccc(C#N)cc3)n2)c(C)c1` [Compound 158] the pSI (HIV) was −2.5, the “pIC50 (M)” value (HIV; [1]) was 8 M and the “pCC50 (M)” value (mock-infected MT-4 cells) was 5.5 M.

In the case of `Cc1cc(CN(C)C=NC#N)cc(C)c1Oc1ccnc(Nc2ccc(C#N)cc2)n1` [Compound 174], the pSI (HIV) is reported as −3.5, the “pIC50 (M)” value (HIV; [1]) is reported as 8.8 M and the “pCC50 (M)” value (mock-infected MT-4 cells) is reported as 5.3 M.

With `Cc1cc(/C=C\Br)cc(C)c1Oc1ccnc(Nc2ccc(C#N)cc2)n1` [Compound 177] the pSI (HIV) was under −4.3, the “pIC50 (M)” value (HIV; [1]) was 8.3 M and the “pCC50 (M)” value (mock-infected MT-4 cells) was under 4.0 M.

`CC(C#N)=Cc1cc(C)c(Oc2ccnc(Nc3ccc(C#N)cc3)n2)c(C)c1` [Compound 178] was tested, and the pSI (HIV) was −3.1, the “pIC50 (M)” value (HIV; [1]) was 8.8 M and the “pCC50 (M)” value (mock-infected MT-4 cells) was 5.7 M.

`CC(C#N)=Cc1cc(C)c(Oc2ccnc(Nc3ccc(C#N)cc3)n2)c(C)c1` [Compound 179] was tested, and the pSI (HIV) was under −4.9, the “pIC50 (M)” value (HIV; [1]) was 8.9 M and the “pCC50 (M)” value (mock-infected MT-4 cells) was under 4.0 M.

For `Cc1cc(/C=C/C(=O)N(C)CC#N)cc(C)c1Oc1ccnc(Nc2ccc(C#N)cc2)n1` [Compound 212], the pSI (HIV) was −4.1, the “pIC50 (M)” value (HIV; [1]) was 9.1 M and the “pCC50 (M)” value (mock-infected MT-4 cells) was 5 M.

In the case of `C/C(=C\C#N)c1cc(C)c(Oc2ccnc(Nc3ccc(C#N)cc3)n2)c(C)c1` [Compound 213], the pSI (HIV) is reported as −4.2, the “pIC50 (M)” value (HIV; [1]) is reported as 9 M and the “pCC50 (M)” value (mock-infected MT-4 cells) is reported as 4.8 M.

For `Cc1cc(/C=C/C(=O)N(C)CCC#N)cc(C)c1Oc1ccnc(Nc2ccc(C#N)cc2)n1` [Compound 214], the pSI (HIV) was −3.5, the “pIC50 (M)” value (HIV; [1]) was 8.6 M and the “pCC50 (M)” value (mock-infected MT-4 cells) was 5.1 M.

In the case of `CCN(C)C(=O)/C=C/c1cc(C)c(Oc2ccnc(Nc3ccc(C#N)cc3)n2)c(C)c1` [Compound 215], the pSI (HIV) is reported as −3.6, the “pIC50 (M)” value (HIV; [1]) is reported as 9.1 M and the “pCC50 (M)” value (mock-infected MT-4 cells) is reported as 5.5 M.

For `Cc1cc(/C=C/C(=O)N(C)C)cc(C)c1Oc1ccnc(Nc2ccc(C#N)cc2)n1` [Compound 219], the pSI (HIV) was −4.1, the “pIC50 (M)” value (HIV; [1]) was 9.1 M and the “pCC50 (M)” value (mock-infected MT-4 cells) was 5 M.

For `Cc1cc(CCC#N)ccc1Nc1ccnc(Nc2ccc(C#N)cc2)n1` [Compound 227], the pSI (HIV) was under −5.5, the “pIC50 (M)” value (HIV; [1]) was 9.5 M and the “pCC50 (M)” value (mock-infected MT-4 cells) was under 4.0 M.

`CC(C#N)=Cc1ccc(Nc2ccnc(Nc3ccc(C#N)cc3)n2)c(C)c1` [Compound 229] was tested, and the pSI (HIV) was under −4.8, the “pIC50 (M)” value (HIV; [1]) was 8.8 M and the “pCC50 (M)” value (mock-infected MT-4 cells) was under 4.0 M.

`Cc1cc(/C=C/C#N)ccc1Oc1ccnc(Nc2ccc(C#N)cc2)n1` [Compound 230] was tested, and the pSI (HIV) was under −5.2, the “pIC50 (M)” value (HIV; [1]) was 9.2 M and the “pCC50 (M)” value (mock-infected MT-4 cells) was under 4.0 M.

In the case of `CC(C#N)=Cc1ccc(Oc2ccnc(Nc3ccc(C#N)cc3)n2)c(C)c1` [Compound 231], the pSI (HIV) is reported as under −5.2, the “pIC50 (M)” value (HIV; [1]) is reported as 9.2 M and the “pCC50 (M)” value (mock-infected MT-4 cells) is reported as under 4.0 M.

`C/C(=C\C#N)c1ccc(Oc2ccnc(Nc3ccc(C#N)cc3)n2)c(C)c1` [Compound 232] was tested, and the pSI (HIV) was under −4.4, the “pIC50 (M)” value (HIV; [1]) was 8.4 M and the “pCC50 (M)” value (mock-infected MT-4 cells) was under 4.0 M.

`CC(C#N)=Cc1cc(C)c(Nc2ccnc(Nc3ccc(C#N)cc3)n2)c(Cl)c1` [Compound 233] was tested, and the pSI (HIV) was −3.6, the “pIC50 (M)” value (HIV; [1]) was 9.3 M and the “pCC50 (M)” value (mock-infected MT-4 cells) was 5.7 M.

With `Cc1cc(CCC#N)ccc1Oc1ccnc(Nc2ccc(C#N)cc2)n1` [Compound 234] the pSI (HIV) was under −4.7, the “pIC50 (M)” value (HIV; [1]) was 8.7 M and the “pCC50 (M)” value (mock-infected MT-4 cells) was under 4.0 M.

`Cc1cc(C(C)CC#N)ccc1Oc1ccnc(Nc2ccc(C#N)cc2)n1` (stereo not shown) [Compound 235] was tested, and the pSI (HIV) was under −5.3, the “pIC50 (M)” value (HIV; [1]) was 9.3 M and the “pCC50 (M)” value (mock-infected MT-4 cells) was under 4.0 M.

With `Cc1cc(CC(C)C#N)ccc1Oc1ccnc(Nc2ccc(C#N)cc2)n1` (stereo not shown) [Compound 236] the pSI (HIV) was under −4.8, the “pIC50 (M)” value (HIV; [1]) was 8.8 M and the “pCC50 (M)” value (mock-infected MT-4 cells) was under 4.0 M.

With `Cc1cc(/C=C/C#N)ccc1Nc1ccnc(Nc2ccc(C#N)cc2)n1` [Compound 237] the pSI (HIV) was under −4.9, the “pIC50 (M)” value (HIV; [1]) was 8.9 M and the “pCC50 (M)” value (mock-infected MT-4 cells) was under 4.0 M.

`Cc1cc(CC#N)cc(Cl)c1Nc1ccnc(Nc2ccc(C#N)cc2)n1` [Compound 238] was tested, and the pSI (HIV) was −3.9, the “pIC50 (M)” value (HIV; [1]) was 9.5 M and the “pCC50 (M)” value (mock-infected MT-4 cells) was 5.6 M.

With `Cc1cc(/C=C/C#N)cc(-c2ccco2)c1Nc1ccnc(Nc2ccc(C#N)cc2)n1` [Compound 239] the pSI (HIV) was −3.9, the “pIC50 (M)” value (HIV; [1]) was 8.9 M and the “pCC50 (M)” value (mock-infected MT-4 cells) was 5 M.

For `Cc1cc(CN(C)CCC#N)cc(Br)c1Nc1ccnc(Nc2ccc(C#N)cc2)n1` [Compound 241], the pSI (HIV) was −4.1, the “pIC50 (M)” value (HIV; [1]) was 9.4 M and the “pCC50 (M)” value (mock-infected MT-4 cells) was 5.3 M.

In the case of `N#C/C=C/c1ccc(Nc2ccnc(Nc3ccc(C#N)cc3)n2)c(Br)c1` [Compound 244], the pSI (HIV) is reported as −5.2, the “pIC50 (M)” value (HIV; [1]) is reported as 9.2 M and the “pCC50 (M)” value (mock-infected MT-4 cells) is reported as 4 M.

For `COc1cc(/C=C/C#N)ccc1Nc1ccnc(Nc2ccc(C#N)cc2)n1` [Compound 245], the pSI (HIV) was −4.8, the “pIC50 (M)” value (HIV; [1]) was 8.8 M and the “pCC50 (M)” value (mock-infected MT-4 cells) was 4 M.

In the case of `CC(C#N)=Cc1cc(C)c(Nc2ccnc(Nc3ccc(C#N)cc3)n2)c(Br)c1` [Compound 247], the pSI (HIV) is reported as −3, the “pIC50 (M)” value (HIV; [1]) is reported as 9.2 M and the “pCC50 (M)” value (mock-infected MT-4 cells) is reported as 6.2 M.

With `Cc1cc(/C=C/C#N)cc(Br)c1Nc1ccnc(Nc2ccc(C#N)cc2)n1` [Compound 248] the pSI (HIV) was −3.5, the “pIC50 (M)” value (HIV; [1]) was 9.3 M and the “pCC50 (M)” value (mock-infected MT-4 cells) was 5.7 M.

`COc1cc(C=C(C)C#N)ccc1Nc1ccnc(Nc2ccc(C#N)cc2)n1` [Compound 249] was tested, and the pSI (HIV) was −4.5, the “pIC50 (M)” value (HIV; [1]) was 8.5 M and the “pCC50 (M)” value (mock-infected MT-4 cells) was 4 M.
